“Also recorded” adds a separate entry of the source. Counter-ions that a name gives are not always drawn.

One series has as its target 5-HTT (Homo sapiens, UniProt P31645). The series is described as follows: Receptor binding, 5-HTT.
Series [1] can be described thus: Pharmacokinetic study, plasma concentration on day 1 and day 14. The series is classed as in vivo. The conditions noted are these: day 1 and day 14 after dosing with SON-117. From the text:
were examined in pharmacokinetic studies.
FIG. 34 illustrates the plasma concentration of SON-117 as a function of time on day 1 after dosing with SON-117. FIG. 35 illustrates the plasma concentration of SON-117 as a function of time on day 14 after dosing with SON˜117.
FIG. 36 illustrates the plasma concentration of the M1 metabolite of SON-117 as a function of time on day 1 after dosing with SON-117. FIG. 37 illustrates the plasma concentration of the M1 metabolite of SON-117 as a function of time on day 14 after dosing with SON-117.

For series [2], the system named is animals exposed to chronic mild stress. The series is described as follows: Chronic mild stress (CMS) model, consumption of 1% sucrose solution. The series is classed as in vivo, rat. The following applies: for effect on sucrose intake one week after cessation of treatments: stressed animals. On the procedure:
Male Wistar rats (Charles River, Germany) were brought into the laboratory one month before the start of the experiment. Except as described below, the animals were singly housed with food and water freely available, and were maintained on a 12-h light/dark cycle, in a constant temperature (22±2° C.) and humidity (50±5%) conditions.
After a period of 2 weeks of adaptation to laboratory and housing conditions, the animals were first trained to consume a 1% sucrose solution; training consisted of nine 1 h baseline tests in which sucrose was presented, in the home cage, following 14 h food and water deprivation; the sucrose intake was measured by weighing pre-weighed bottles containing the sucrose solution, at the end of the test. Subsequently, the sucrose consumption was monitored, under similar conditions, at weekly intervals throughout the whole experiment.
On the basis of their sucrose intakes in the final baseline test, the animals were divided into two matched groups. One group of animals was subjected to the chronic mild stress procedure for a period of 8 consecutive weeks. Each week of stress regime consisted of: two periods of food or water deprivation, two periods of 45 degree cage tilt, two periods of intermittent illumination (lights on and off every 2 h), two periods of soiled cage (250 ml water in sawdust bedding), one period of paired housing, two periods of low intensity stroboscopic illumination (150 flashes/min), and three periods of no stress. All stressors were 10-14 h of duration and were applied individually and continuously, day and night. Control animals were housed in separate rooms and had no contact with the stressed animals. They were deprived of food and water for the 14 h preceding each sucrose test, but otherwise food and water were freely available in the home cage.
On the basis of their sucrose intakes following initial 2 weeks of stress, both the stressed and the control groups were each divided further into matched subgroups (n=8), and for subsequent five weeks they received once daily intraperitoneal injections of vehicle (0.5% hydroxypropylmethylcellulose, 1 ml/kg), SON-117 (0.001, 0.01, 0.1 and 1 mg/kg) or imipramine (10 mg/kg) as the reference treatment. The drugs were administered at approx. 10:00 AM and the weekly sucrose tests were carried out 24 h following the last drug injections. After five weeks all treatments were terminated and one additional sucrose test was carried out after one week of withdrawal. Stress was continued throughout the period of treatment and withdrawal.
(§1) After completion of the administration and withdrawal period, all control and stressed animals were placed in an open field (100 cm in diameter, 35 cm high) and allowed to explore two identical objects (cylinder-shaped object with walls painted white, 7 cm in diameter, 11 cm high) for the time required to complete 15 s of exploration of either object. For the retention trial conducted one hour later, one of the objects presented previously was replaced with a novel object (prism-shaped object with walls painted black, 5 cm wide, 14 cm high). Rats were returned to the open field for 5 min and the duration of exploration (i.e. sitting in close proximity to the objects, sniffing or touching them) of each object was measured separately by a trained observer. The data were calculated according to the following formula: [time of novel object exploration divided by time of novel plus familiar object exploration multiplied by 100]. The CMS and NOR data were analyzed by multiple analyses of variance with three between-subjects factors (stress/control, drug treatments and intakes in successive sucrose tests). The Fisher's LSD test was used for the post-hoc comparisons of means.

The subject of another series is subjective sleep. The series is described as follows: Leeds Sleep Evaluation Questionnaire (LSEQ). The following applies: SON-117 1 mg; after single administration, sustained up to day 16. The series is classed as in vivo, human.
For a further series, the system named is sleep EEG parameters. The series is described as follows: Polysomnography / sleep EEG study. The series is classed as in vivo, human. As to the method:
In this study, certain pharmacodynamic sleep parameters predictive of antidepressant activity were monitored and measured. […] Three doses of SON-117 were tested (1 mg, 3 mg, 7.5 mg). […] In an embodiment, SON-117 affected sleep. In an embodiment, SON-117 affected REM sleep.
[…] subjects were tested in a sleep study, where 23 subjects were dosed with SON-117 in amounts of 1 mg up to 7.5 mg; 12 were given a placebo; and 8 were given escitalopram at a dose of 20 mg. Sleep was recorded in individual sound-attenuated and comfortably furnished bedrooms. During bedtime hours subjects were recumbent and the lights are turned off. The polysomnographic montage consisted of 4 EEG channels (C3A2, O1A2, C4A1, and O2A1), bilateral electro-oculograms, and 2 submental electromyograms. The different sleep parameters were derived with the Hypnos software from the visual scoring of the recordings at 30 sec epochs according to Rechtschaffen and Kales (1968) rules. Sleep continuity parameters comprise both sleep initiation and sleep maintenance variables. Sleep architecture parameters, which include REM sleep parameters, comprise stages distribution variables documenting duration and proportion of the different sleep stages and sleep profile variables that provide an outline on the time course of the different sleep stages during the recording period. All night sleep EEG spectral analysis was carried out on the C3-A2 derivation by means a fast Fourrier transform algorithm. Epoch length was 2 seconds at a sampling rate of 256 Hz and truncating error was reduced by applying a Hanning window. Sleep visual scores of each 30-second epoch was synchronised with power density values in order to allow the analysis of power density within in specific period of time such as REM and non REM sleep.

The test system of series [3] is animals exposed to chronic mild stress. As to the kind of experiment: Novel object recognition test after CMS and treatment withdrawal. It is filed as in vivo, rat.
Text: as §1

The next series relates to 5-HT1A, 5-HTT, 5-HT2A. The series is described as follows: Electrophysiological studies. The conditions noted are these: first 5-HT1A is presynaptic.

Chain of 5-HTT (P31645 whole entry, species assumed): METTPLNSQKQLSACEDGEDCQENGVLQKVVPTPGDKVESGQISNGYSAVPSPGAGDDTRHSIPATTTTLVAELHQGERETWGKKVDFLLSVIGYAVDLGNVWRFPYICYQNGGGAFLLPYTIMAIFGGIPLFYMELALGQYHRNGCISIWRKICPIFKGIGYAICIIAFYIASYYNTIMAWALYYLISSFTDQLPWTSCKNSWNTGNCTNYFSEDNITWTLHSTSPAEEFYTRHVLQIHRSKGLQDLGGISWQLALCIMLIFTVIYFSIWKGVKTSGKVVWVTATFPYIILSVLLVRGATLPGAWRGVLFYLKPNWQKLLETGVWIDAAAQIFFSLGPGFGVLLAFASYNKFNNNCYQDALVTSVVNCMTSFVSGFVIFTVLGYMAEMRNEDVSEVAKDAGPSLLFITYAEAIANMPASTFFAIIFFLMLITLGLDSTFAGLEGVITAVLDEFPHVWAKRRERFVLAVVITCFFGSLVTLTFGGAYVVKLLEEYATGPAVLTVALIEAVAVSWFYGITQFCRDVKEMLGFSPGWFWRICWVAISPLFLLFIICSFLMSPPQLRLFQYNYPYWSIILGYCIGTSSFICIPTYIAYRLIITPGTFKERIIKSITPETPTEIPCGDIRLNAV

For `Cc1nnc(-c2cc3c(OC[C@@H](O)CN4CCC(c5ccc(Cl)c(Cl)c5)CC4)cccc3o2)o1` [SON-117, (S)-1-(4-(3,4-dichlorophenyl)piperidino)-3-(2-(5-methyl-1,3,4-oxadiazol-2-yl)benzo(b)furan-4-yloxy)-2-propanol hydrochloride], the “affinity, 5-HTT binding” value on 5-HTT is on record as “high affinity”. In series [1], the “AUC, dependence on dose” value is given as “dose-proportional increase” and the “Cmax, dependence on dose” value is on record as “dose-proportional increase”. Further, in series [2] (CMS model), the “dose at which rapid-onset normalization of sucrose intake was observed (as low as)” value is 1 µg/kg. The “effect on sucrose intake one week after cessation of treatments” value in series [2] (SON-117 0.001 mg/kg) is recorded as “maintained”. In series [2] (SON-117 0.001 and 0.01 mg/kg IP (only these doses significant vs Week 0)), the “time at which increase of sucrose consumption in stressed animals reached significance vs Week 0” value is on record as “first week”. Further, in series [2] (SON-117 0.001 and 1.0 mg/kg), the “onset of action: enhancement of sucrose intakes reached statistical significance” value is “first week”. Also, in series [2] (SON-117 1 mg/kg), the “effect on sucrose intake one week after cessation of treatments” value is given as “abolished”. Besides, the “effectiveness in the CMS model” value in series [2] (SON-117 0.01 and 0.1 mg/kg) was “less effective than imipramine”. Moreover, in series [2] (SON-117 most active doses (0.001 and 1.0 mg/kg)), the “magnitude of action in the CMS model” value is “comparable to that of imipramine”. For the same molecule, in series [2] (once daily IP for five weeks, imipramine 10 mg/kg, SON-117 all doses (0.001, 0.01, 0.1 and 1 mg/kg)), the “sucrose intake in control animals, compared to vehicle” value is “no significant effect”. Moreover, in series [2] (once daily IP for five weeks, imipramine 10 mg/kg, SON-117 all four doses (0.001-1 mg/kg), hydrochloride), the “sucrose consumption in stressed animals, compared to vehicle” value is on record as “significant effects; also recorded: enhanced”. Besides, in the series with subjective sleep, the “LSEQ getting to sleep” value is “easier” and the “LSEQ quality of sleep” value is on record as “improved”. For the same molecule, the “effect of discontinuation of dosing on sleep EEG parameters, including REM sleep” value in the series with sleep EEG parameters (SON-117) is recorded as “no evidence”. Further, the “slow wave sleep (SWS)” value with sleep EEG parameters (SON-117 1 mg, day 1 and day 14, second third of the night, hydrochloride) was “could increase; also recorded: increased”. In the series on sleep EEG parameters (SON-117 repeated dosing, two highest dosages (3 mg, 7.5 mg), particularly 7.5 mg, hydrochloride), the “REM sleep, REM density/activity” value is given as “could have REM sleep promoting effect; also recorded: increased”. In the series with sleep EEG parameters (SON-117 three doses tested (1, 3, 7.5 mg)), the “sleep continuity and sleep architecture parameters” value was “largely not influenced”. Moreover, in series [3] (SON-117 0.001, 0.01 and 0.1 mg/kg, one week after withdrawal), the “recognition index in stressed animals” value is “restored”. For the same molecule, in series [3] (SON-117 1 mg/kg, stressed animals), the “effect against the CMS-induced deficit in the novel object recognition” value was “ineffective”. Further, the “recognition index in control animals” value in series [3] (SON-117 all doses (0.001-1 mg/kg IP), one week after withdrawal) is given as “no significant effect”. Besides, in the series on 5-HT1A, 5-HTT, 5-HT2A, the “order of effects in electrophysiological studies” value is given as 5-HT1A>5-HTT>5-HT2A>postsynaptic 5-HT1A.
